Data taken from paper PMC6236447 (Molecules : A Journal of Synthetic Chemistry and Natural …, 2001).
Where a SMILES comes first, the peptide text is derived from it. [ ]: non-standard residue; d: D form. Ahx = NCCCCCC(=O)O

Experiments:
hY1-receptor = molecular target: T1, hY1-receptor (Homo sapiens, UniProt P25929); test: Radioligand displacement binding on SK-N-MC membranes
T1 sequence (P25929 1-384): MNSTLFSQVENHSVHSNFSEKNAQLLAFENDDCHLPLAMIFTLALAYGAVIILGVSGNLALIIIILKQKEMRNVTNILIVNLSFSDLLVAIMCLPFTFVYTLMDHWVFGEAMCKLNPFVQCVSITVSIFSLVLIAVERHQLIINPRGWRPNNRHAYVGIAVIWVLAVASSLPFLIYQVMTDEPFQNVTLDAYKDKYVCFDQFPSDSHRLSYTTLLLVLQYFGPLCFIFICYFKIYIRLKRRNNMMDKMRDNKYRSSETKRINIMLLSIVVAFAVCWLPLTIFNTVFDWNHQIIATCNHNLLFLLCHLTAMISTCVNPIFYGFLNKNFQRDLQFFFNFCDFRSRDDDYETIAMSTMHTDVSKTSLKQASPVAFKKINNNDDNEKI

hY2-receptor = molecular target: T2, hY2-receptor (Homo sapiens, UniProt P49146); test: Radioligand displacement binding on SMS-KAN membranes
T2 sequence (P49146 1-381): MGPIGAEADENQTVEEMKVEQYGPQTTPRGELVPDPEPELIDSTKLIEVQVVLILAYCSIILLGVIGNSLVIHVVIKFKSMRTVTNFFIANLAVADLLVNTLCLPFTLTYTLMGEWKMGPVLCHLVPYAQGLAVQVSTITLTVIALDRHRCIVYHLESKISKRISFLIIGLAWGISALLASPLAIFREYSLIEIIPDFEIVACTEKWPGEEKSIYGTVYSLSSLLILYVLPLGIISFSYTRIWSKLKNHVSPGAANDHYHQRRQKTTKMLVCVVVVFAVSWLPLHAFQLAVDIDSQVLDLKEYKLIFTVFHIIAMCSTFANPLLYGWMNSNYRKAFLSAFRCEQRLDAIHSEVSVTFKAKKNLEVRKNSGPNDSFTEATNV

hY4-receptor = hY4-receptor (Homo sapiens, UniProt P50391); test: Radioligand displacement binding on transfected BHK membranes
hY5-receptor = molecular target: T3, hY5-receptor (Homo sapiens, UniProt Q15761); test: as above
T3 sequence (Q15761 1-445): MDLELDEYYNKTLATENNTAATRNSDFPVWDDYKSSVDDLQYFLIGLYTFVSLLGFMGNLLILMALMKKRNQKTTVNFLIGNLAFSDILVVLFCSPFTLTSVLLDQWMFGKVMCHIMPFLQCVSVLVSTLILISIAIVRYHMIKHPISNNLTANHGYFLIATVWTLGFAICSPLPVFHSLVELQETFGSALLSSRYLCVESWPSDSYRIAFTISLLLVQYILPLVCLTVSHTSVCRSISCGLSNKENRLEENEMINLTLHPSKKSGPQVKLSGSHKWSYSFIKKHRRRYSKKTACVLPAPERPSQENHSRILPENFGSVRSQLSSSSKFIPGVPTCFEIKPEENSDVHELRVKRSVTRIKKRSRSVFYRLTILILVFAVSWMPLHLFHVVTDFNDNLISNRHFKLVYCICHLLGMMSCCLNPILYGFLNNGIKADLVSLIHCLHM

hY4-receptor, sequence (P50391 whole entry): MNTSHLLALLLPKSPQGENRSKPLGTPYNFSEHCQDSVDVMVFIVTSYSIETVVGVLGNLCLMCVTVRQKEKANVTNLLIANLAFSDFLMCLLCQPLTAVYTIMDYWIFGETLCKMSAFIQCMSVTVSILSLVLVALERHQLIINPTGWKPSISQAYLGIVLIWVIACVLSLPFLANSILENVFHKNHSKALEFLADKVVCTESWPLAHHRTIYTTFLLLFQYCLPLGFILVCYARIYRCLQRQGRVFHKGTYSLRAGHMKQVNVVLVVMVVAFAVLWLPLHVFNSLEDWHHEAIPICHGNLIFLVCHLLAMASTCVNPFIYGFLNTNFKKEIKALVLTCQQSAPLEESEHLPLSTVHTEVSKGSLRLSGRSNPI

SMILES | IC50 (hY1-receptor) [nM] | IC50 (hY2-receptor) [nM] | IC50 (hY4-receptor) [nM] | IC50 (hY5-receptor) [nM]
CC[C@H](C)[C@H](NC(=O)[C@H](Cc1ccc(O)cc1)NC(=O)[C@H](Cc1cnc[nH]1)NC(=O)[C@H](CCCNC(=N)N)NC(=O)CCCCCNC(=O)[C@H](CCCCN)NC(=O)[C@H](CO)NC(=O)[C@@H]1CCCN1C(=O)[C@@H](N)Cc1ccc(O)cc1)C(=O)N[C@@H](CC(N)=O)C(=O)N[C@@H](CC(C)C)C(=O)N[C@H](C(=O)N[C@H](C(=O)N[C@@H](CCCNC(=N)N)C(=O)N[C@@H](CCC(N)=O)C(=O)N[C@@H](CCCNC(=N)N)C(=O)N[C@@H](Cc1ccc(O)cc1)C(N)=O)[C@@H](C)O)[C@@H](C)CC [[Ahx^5-24]-NPY] (H-YPSK[Ahx]RHYINLITRQRY-NH2) | > 1000 | 1.4 | 600 | 795
CC[C@H](C)[C@H](NC(=O)[C@H](Cc1ccc(O)cc1)NC(=O)[C@H](CCCNC(=N)N)NC(=O)[C@H](CCCNC(=N)N)NC(=O)[C@H](CC(C)C)NC(=O)[C@H](CC(=O)O)NC(=O)[C@H](C)NC(=O)[C@H](C)NC(=O)CCCCCNC(=O)[C@H](CCC(=O)O)NC(=O)[C@H](CC(C)C)NC(=O)[C@@H]1CCCN1C(=O)[C@H](C)N)C(=O)N[C@@H](CC(N)=O)C(=O)N[C@@H](CCSC)C(=O)N[C@@H](CC(C)C)C(=O)N[C@H](C(=O)N[C@@H](CCCNC(=N)N)C(=O)N1CCC[C@H]1C(=O)N[C@@H](CCCNC(=N)N)C(=O)N[C@@H](Cc1ccc(O)cc1)C(N)=O)[C@@H](C)O [[Ahx^5-20]-hPP] (H-APLE[Ahx]AADLRRYINMLTRPRY-NH2) | > 1500 | > 1000 | 216 | > 7000
CC[C@H](C)[C@H](NC(=O)[C@H](Cc1ccc(O)cc1)NC(=O)[C@H](CCCNC(=N)N)NC(=O)[C@H](CCCNC(=N)N)NC(=O)CCCCCNC(=O)[C@H](CCC(=O)O)NC(=O)[C@H](CC(C)C)NC(=O)[C@@H]1CCCN1C(=O)[C@H](C)N)C(=O)N[C@@H](CC(N)=O)C(=O)N[C@@H](CCSC)C(=O)N[C@@H](CC(C)C)C(=O)N[C@H](C(=O)N[C@@H](CCCNC(=N)N)C(=O)N1CCC[C@H]1C(=O)N[C@@H](CCCNC(=N)N)C(=O)N[C@@H](Cc1ccc(O)cc1)C(N)=O)[C@@H](C)O [[Ahx^5-24]-hPP] (H-APLE[Ahx]RRYINMLTRPRY-NH2) | > 500 | > 1000 | 144 | > 1000
CC[C@H](C)[C@H](NC(=O)[C@H](Cc1ccc(O)cc1)NC(=O)[C@H](Cc1c[nH]cn1)NC(=O)[C@H](CCCNC(=N)N)NC(=O)[C@H](CC(C)C)NC(=O)[C@H](C)NC(=O)[C@H](CO)NC(=O)[C@H](Cc1ccc(O)cc1)NC(=O)CCCCCNC(=O)[C@H](CC(N)=O)NC(=O)[C@H](CC(=O)O)NC(=O)[C@@H]1CCCN1C(=O)[C@H](CCCCN)NC(=O)[C@H](CO)NC(=O)[C@@H]1CCCN1C(=O)[C@@H](N)Cc1ccc(O)cc1)C(=O)N[C@@H](CC(N)=O)C(=O)N[C@@H](CC(C)C)C(=O)N[C@H](C(=O)N[C@H](C(=O)N[C@@H](CCCNC(=N)N)C(=O)N[C@@H](CCC(N)=O)C(=O)N[C@@H](CCCNC(=N)N)C(=O)N[C@@H](Cc1ccc(O)cc1)C(N)=O)[C@@H](C)O)[C@@H](C)CC [[Ahx^8-20]-NPY] (H-YPSKPDN[Ahx]YSALRHYINLITRQRY-NH2) |  |  | 67 | 31
CC[C@H](C)[C@H](NC(=O)[C@H](Cc1ccc(O)cc1)NC(=O)[C@H](Cc1c[nH]cn1)NC(=O)[C@H](CCCNC(=N)N)NC(=O)CCCCCNC(=O)[C@H](CCCCN)NC(=O)[C@H](CO)NC(=O)[C@@H]1CCCN1C(=O)[C@@H](N)Cc1ccc(O)cc1)C(=O)N[C@@H](CC(N)=O)C(=O)N[C@@H](CC(C)C)C(=O)N[C@H](C(=O)N[C@H](C(=O)N[C@@H](CCCNC(=N)N)C(=O)N1CCC[C@H]1C(=O)N[C@@H](CCCNC(=N)N)C(=O)N[C@@H](Cc1ccc(O)cc1)C(N)=O)[C@@H](C)O)[C@@H](C)CC [[Ahx^5-24, ^P34]-NPY] (H-YPSK[Ahx]RHYINLITRPRY-NH2) |  |  | 514 | > 10000
